From patent US20210060165A1, “Light-Controlled Antibacterial Agent Composed of Linear Cationic Oligopeptide and Multi-arm B-Cyclodextrin” (JILIN UNIVERSITY, priority 2019, published 2021) come the findings set out here.

What all share (assay): growth curve (OD600) in LB liquid culture medium
Type in all cases: cell-based
Holding throughout (settings): separate or as aggregates

Test [1] relates to Escherichia coli (BL21-gold (DE3)). As to the method:
(§1) Preparation of LB liquid culture medium: dissolving 1-10 g of peptone, 0.5-5 g of yeast extract and 1-10 g of sodium chloride in 100-980 mL of redistilled water, and performing high temperature sterilization on same at 121° C. for 20 min to obtain a fresh LB liquid culture medium.
(§2) Picking bacterial strains (gram-negative bacteria such as Escherichia coli, […], Pseudomonas aeruginosa, and gram-positive bacteria such as Staphylococcus aureus) into 20-30 mL of (containing 20-25 μL of ampicillin) the above fresh LB liquid culture medium, placing in a constant temperature shaker with a revolution of 180 rpm and a temperature of 37° C. for culture for 11-15 h, thus obtaining the LB culture solution containing bacterial strains; then diluting the above LB culture solution containing bacteria strains with a blank LB liquid culture medium to an OD600 (OD600 refers to the light absorption value of the bacteria strain culture solution at 600 nm) about 0.035.
(§3) Antibacterial property of cross-linked aggregates in LB liquid culture medium: adding the diluted LB culture solution (the LB culture solution contains bacteria and ampicillin) containing bacterial strains into a clean test tube, adding the aqueous solution of the light-controlled antibacterial agent composed of the linear cationic oligopeptide and multi-arm β-cyclodextrin into the test tube, and controlling the concentration of the final linear cationic oligopeptide to 15-60 μM. Placing the prepared sample in the constant temperature shaker at 37° C. for culture, and controlling the revolution of the shaker to be 180 rpm. Determining the corresponding optical density (OD600) of the culture solution at different times (0-540 min) with a nucleic acid protein analyzer to evaluate the antibacterial activity of the cross-linked aggregates.
(§4) Preparation of LB liquid culture medium: dissolving 10 g of peptone, 5 g of yeast extract and 10 g of sodium chloride in 980 mL of redistilled water, and performing high temperature sterilization on same at 121° C. for 20 min to obtain a fresh LB liquid culture medium. Picking Escherichia coli (BL21-gold (DE3),) into 25 mL (containing 25 μL of ampicillin) of the above fresh LB liquid culture medium, placing in a constant temperature shaker with a revolution of 180 rpm and a temperature of 37° C. for culture for 12 h. Then diluting the obtained Escherichia coli culture solution with the fresh LB liquid culture medium to an OD600 of 0.035.
(§5) respectively taking 4 parts of the sterilized Escherichia coli culture solution (2.0 mL each) into 4 sterile test tubes, numbered as 1, 2, 3, and 4. […]

The subject of the next test is Bacillus subtilis. The protocol: as §1, §2, §3, §4, §5
A further test has as its system Pseudomonas aeruginosa. The protocol:
as §1, §2, §3, §4, §5

Another test deals with Staphylococcus aureus. The protocol: as §1, §2, §3, §4, §5
Setting [2] is: Embodiment 5, 37° C., azoRIRIRARazo-NH2 20 μM, two-arm β-cyclodextrin 20 μM.
[3] abbreviates: Embodiment 2, 37° C., peptide 30 μM, cyclodextrin 30 μM.
The mark [4] stands for this setting: Embodiment 9, 37° C., azoKVKVKVKazo-NH2 30 μM, three-arm β-cyclodextrin 10 μM, two-arm β-cyclodextrin 15 μM.
Where [5] appears, read: Embodiment 4, 37° C., azoRARARVRazo-NH2 30 μM, three-arm β-cyclodextrin 20 μM.
Setting [6] is: Embodiment 6, 37° C., azoKAKAKazo-NH2 60 μM, three-arm β-cyclodextrin 40 μM.
Setting [7] is: Embodiment 3, 37° C., azoKLKLKLKazo-NH2 30 μM, three-arm β-cyclodextrin 20 μM.
The mark [8] stands for this setting: Embodiment 7, 37° C., azoRARVRazo-NH2 50 μM, three-arm β-cyclodextrin 33.33 μM.

Each structure is given as a SMILES string.

`OCC1OC2OC3C(CO)OC(OC4C(CO)OC(OC5C(Cn6cc(COc7ccc(OCc8cn(CC9OC%10OC%11C(CO)OC(OC%12C(CO)OC(OC%13C(CO)OC(OC%14C(CO)OC(OC%15C(CO)OC(OC%16C(CO)OC(OC9C(O)C%10O)C(O)C%16O)C(O)C%15O)C(O)C%14O)C(O)C%13O)C(O)C%12O)C(O)C%11O)nn8)cc7)nn6)OC(OC6C(CO)OC(OC7C(CO)OC(OC8C(CO)OC(OC1C(O)C2O)C(O)C8O)C(O)C7O)C(O)C6O)C(O)C5O)C(O)C4O)C(O)C3O` (stereo not drawn) [two-arm β-cyclodextrin]: in test [1] (setting [2]), the “optical density (OD600) at end of culture” value is 1.21 and the “optical density (OD600) at start of culture” value came to 0.034.

`OCC1OC2OC3C(CO)OC(OC4C(CO)OC(OC5C(Cn6cc(-c7cc(-c8cn(CC9OC%10OC%11C(CO)OC(OC%12C(CO)OC(OC%13C(CO)OC(OC%14C(CO)OC(OC%15C(CO)OC(OC%16C(CO)OC(OC9C(O)C%10O)C(O)C%16O)C(O)C%15O)C(O)C%14O)C(O)C%13O)C(O)C%12O)C(O)C%11O)nn8)cc(-c8cn(CC9OC%10OC%11C(CO)OC(OC%12C(CO)OC(OC%13C(CO)OC(OC%14C(CO)OC(OC%15C(CO)OC(OC%16C(CO)OC(OC9C(O)C%10O)C(O)C%16O)C(O)C%15O)C(O)C%14O)C(O)C%13O)C(O)C%12O)C(O)C%11O)nn8)c7)nn6)OC(OC6C(CO)OC(OC7C(CO)OC(OC8C(CO)OC(OC1C(O)C2O)C(O)C8O)C(O)C7O)C(O)C6O)C(O)C5O)C(O)C4O)C(O)C3O` (stereo not drawn) [three-arm β-cyclodextrin]: the “optical density (OD600) at end of culture” value with Bacillus subtilis (setting [3]) turned out to be 1.15; with Bacillus subtilis (setting [4]), 1.23; in the test on Pseudomonas aeruginosa (setting [5]), 1.15; in the test with Pseudomonas aeruginosa (setting [6]), 1.25; with Staphylococcus aureus (setting [7]), 1.25; in the test on Staphylococcus aureus (setting [8]), 1.22. Besides, the “optical density (OD600) at start of culture” value in the test on Bacillus subtilis (setting [3]) is 0.036; in the test with Bacillus subtilis (setting [4]), 0.039; with Pseudomonas aeruginosa (setting [5]), 0.039; in the test with Pseudomonas aeruginosa (setting [6]), 0.035; with Staphylococcus aureus (setting [7]), 0.043; in the test on Staphylococcus aureus (setting [8]) it was 0.041. Besides, the “optical density (OD600) at start of incubation” value in test [1] (Embodiment 1, 37° C., 0 min, azoKVKVKVKazo-NH2 30 μM, three-arm β-cyclodextrin 20 μM) was 0.043. In addition, the “optical density (OD600) at end of incubation” value in test [1] (Embodiment 1, 37° C., 9 h (540 min), azoKVKVKVKazo-NH2 30 μM, three-arm β-cyclodextrin 20 μM) came out at 1.61.
